# From ChEMBL document CHEMBL1201862, “PubChem BioAssay data set” (2004)
# Activity calls are given as the source filed them.
# Assays:
# [1] = HepG2 cell cytotoxicity, dose response, cytotoxicity control, plate reader, dry powder, set 6 (AID 743311); format: functional, cell-based
# cells = details: HEK293
# [2] = A549 cell cytotoxicity, dose response, cytotoxicity control, plate reader, dry powder, set 6 (AID 743312); format: functional, cell-based
# Escherichia coli = assay: microbe, parasite or virus in culture
# [3] = inhibitors of Vif binding to APOBEC3G peptide, primary screen, biochemical, TR-FRET, GST-Vif 1-94, biotin-A3G peptide, dose response retest (AID 1117319); format: functional;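 also: TR-FRET signal of purified GST-Vif binding a biotinylated A3G peptide; inhibitors lower the FRET signal by blocking Vif and A3G binding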
# [4] = P. falciparum 3D7-ScDHODH growth inhibitors, dose response, SYBR Green, dry powder samples (AID 1159570); format: functional, cell-based;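 also: parasite growth measured after 72 hours of compound exposure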
# [5] = P. falciparum Dd2 growth inhibitors, dose response, SYBR Green, dry powder samples (AID 1159566); format: functional, cell-based;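 also: potency for growth inhibition with lower SYBR green DNA signal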
# [6] = P. falciparum Dd2 growth inhibitors, dose response, SYBR Green, cherry-picked samples (AID 1159567); format: functional, cell-based
# [7] = P. falciparum ATP4 D1247Y mutant growth inhibitors, dose response, NITD609-resistant line, SYBR Green, dry powder (AID 1159571); format: functional, cell-based;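 also: parasites synchronized at ring stage by sorbitol before testing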
# [8] = TRPM1 promoter luciferase reporter signal decrease, dose response, MITF inhibitor project, cell-based, SK-MEL-5, dry powder, set 9 (AID 651588); format: functional
# [9] = SK-MEL-5 parental line viability, dose response, MITF inhibitor project, cell-based, CellTiter-Glo, dry powder, set 6 (AID 624429); format: functional
# [10] = A375 melanoma cell viability loss, dose response, counter-screen for MITF inhibitor project, CellTiter-Glo luminescence, dry powder, set 4 (AID 624364); format: functional, cell-based; details: A-375;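 also: A375 melanoma cells are MITF independent so this is a counter screen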
# [11] = SK-MEL-5 parental cell viability reduction, dose response, orthogonal assay for MITF inhibitor project, CellTiter-Glo luminescence, dry powder, set 8 (AID 651586); format: functional, cell-based
# [12] = cytotoxicity in primary human melanocytes, dose response, cytotoxicity control, cell-based, plate reader, dry powder (AID 651920); format: functional
# [13] = A375 melanoma cell cytotoxicity, dose response, counter-screen for MITF inhibitor project, CellTiter-Glo luminescence, dry powder, set 6 (AID 624488); format: functional, cell-based; details: A-375
# [14] = MALME3 melanoma cell viability reduction, dose response, orthogonal assay for MITF inhibitor project, CellTiter-Glo luminescence, dry powder, set 5 (AID 651584); format: functional, cell-based; details: MALME-3
# [15] = MITF Orthogonal Assay: SK-MEL-5 CTG Assay Measured in Cell-Based System Using Plate Reader - 2084-02_Inhibitor_Dose_DryPowder_Activity_Set5.; format: functional
# [16] = MITF Orthogonal Assay: MALME3 CTG Assay Measured in Cell-Based System Using Plate Reader - 2084-04_Inhibitor_Dose_DryPowder_Activity_Set6.; format: functional; details: MALME-3
# [17] = MITF Measured in Cell-Based System Using Plate Reader - 2084-01_Inhibitor_Dose_DryPowder_Activity_Set7.; format: functional
# [18] = A375 melanoma cell viability loss, dose response, counter-screen for MITF modulator project, CellTiter-Glo luminescence, dry powder, set 9 (AID 651591); format: functional, cell-based; details: A-375
# [19] = A375 melanoma cell cytotoxicity, dose response, counter-screen for MITF inhibitor project, CellTiter-Glo luminescence, dry powder, set 7 (AID 624490); format: functional, cell-based; details: A-375
# [20] = MITF Measured in Cell-Based System Using Plate Reader - 2084-01_Inhibitor_Dose_DryPowder_Activity_Set6.; format: functional
# [21] = SNU-C1 cell viability reduction, dose response, CellTiter-Glo luminescence (AID 1117323); format: functional, cell-based
# [22] = HeLa 4N DNA content increase, dose response, cell-based, IC50 (AID 1117351); format: functional
# [23] = cytotoxicity toward Colo320 cells – cell-based, CellTiter-Glo luminescence, IC50, dose response (AID 1117334); format: functional; details: COLO 320
# [24] = cytotoxicity toward HT-29 cells – cell-based, CellTiter-Glo luminescence, IC50, dose response (AID 1117330); format: functional
# [25] = Concentration-dependent survival of SW480 colon cancer line, luminescence detection with CellTiter-Glo, half-maximal inhibitory concentration (AID 1117338); format: functional
# [26] = HeLa 2N DNA content increase, dose response, cell-based, IC50 (AID 1117349); format: functional
# [27] = Dose-response inhibition of insulin secretion in a rat insulinoma line at 5 mM glucose (AID 1117331); format: functional, cell-based; details: INS-1E
# [28] = HCT116 cell viability decrease, GSK3B pretreatment – CellTiter-Glo, IC50, dose response (AID 1117339); format: functional; details: HCT-116
# [29] = CellTiter-Glo luminescent dose response of DLD-1 viability loss (AID 1117352); format: functional
# [30] = RKO cell viability reduction, dose response, CellTiter-Glo luminescence (AID 1117322); format: functional
compound,measurement,setting,value
Cc1ccc(C(C)C)c(OCCn2c(CO)nc3ccccc32)c1,AC50,[1],37.4 µM (active)
same,AC50,cells,32.2 µM (active)
same,AC50,[2],38.5 µM (active)
COc1ccc(S(=O)(=O)NCCSCc2ccco2)cc1Cl,AC50,Escherichia coli,43.2 µM (active)
same,IC50,[3],> 100 µM (active)
COc1ccc2c3c(n(C)c2c1)[C@@H](CO)N(C(=O)c1ccc(F)cc1)CC31CCN(C(=O)Nc2ccc(F)cc2)CC1,AC50,[4],1.04 µM (active)
same,AC50,[5],0.795 µM (active)
same,AC50,[6],1.89 µM (active)
same,AC50,[7],1.06 µM (active)
COC1=C(NS(=O)(=O)c2cccs2)C(=O)c2ccccc2C1=O,AC50,[8],26.3 µM (active)
same,AC50,[9],20.2 µM (active)
same,AC50,[10],> 70 µM (inactive)
same,AC50,[11],21 µM (active)
same,AC50,[12],64.3 µM (active)
same,AC50,[13],64.7 µM (active)
same,AC50,[14],38 µM (active)
same,AC50,[15],19.1 µM (active)
same,AC50,[16],38 µM (active)
same,AC50,[17],12.3 µM (active)
same,AC50,[18],> 70 µM (inactive)
same,AC50,[19],> 70 µM (inactive)
same,AC50,[20],13.2 µM (active)
CC(=O)Oc1ccc(C2(c3ccc(OC(C)=O)cc3)Oc3ccccc3NC2=O)cc1 [BISOXATIN ACETATE],IC50,[21],> 20 µM (inactive)
same,IC50,[22],> 10 µM (inactive)
same,IC50,[23],> 20 µM (inactive)
same,IC50,[24],> 20 µM (inactive)
same,IC50,[25],9.19 µM (inactive)
same,IC50,[26],> 10 µM (inactive)
same,IC50,[27],> 33.3 µM (inactive)
same,IC50,[28],3.26 µM (active)
same,IC50,[29],19.7 µM (inactive)
same,IC50,[30],9.23 µM (inactive)
